These results are taken from patent US10172814B2, “Substituted pyridyl-cycloalkyl-carboxylic acids, compositions containing them and medical uses thereof” (BAYER PHARMA AKTIENGESELLSCHAFT, priority 2014, dated 2019).

Each structure is given as a SMILES string.

Chain of human PTGES (O14684 whole entry): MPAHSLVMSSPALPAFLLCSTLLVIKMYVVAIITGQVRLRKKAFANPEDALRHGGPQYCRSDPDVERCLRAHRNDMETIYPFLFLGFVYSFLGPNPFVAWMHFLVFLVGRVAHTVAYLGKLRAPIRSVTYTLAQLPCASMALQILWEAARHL

The target in the experiment is human PTGES (Homo sapiens (Human), UniProt O14684). As to the kind of experiment: Human PTGES biochemical enzyme inhibition assay (conversion of PGH2 to PGE2, TR-FRET). As to conditions: Enzymatic conversion of PGH2 to PGE2; read-out: Human PTGES IC50. In outline:
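FLAG-tagged human PTGES from Hi-5 insect cells preincubated 15–20 min with compound in pH 7.2 phosphate buffer with 2.5 mM reduced glutathione; reaction started with 8 nM PGH2 final, stopped with SnCl2/KF.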
As for `Cc1c(CCC(=O)O)cccc1NC(=O)C(c1ccc(-c2cncc(C(F)(F)F)c2)c(Cl)c1)C1CCCC1` (racemic) [Example 175, (R/S) 3-[3-({[3-chloro-4-(5-(trifluoromethyl)pyridin-3-yl)phenyl](cyclopentyl)acetyl}amino)-2-methylphenyl]propanoic acid], the IC50 came out at 34.6 nM.
As for `Cc1ncc(-c2ccc(C(C(=O)Nc3cccc(CCC(=O)O)c3C)C3CCCC3)cc2Cl)cc1Cl` (racemic) [Example 176, (R/S) 3-[3-({[3-chloro-4-(5-chloro-6-methylpyridin-3-yl)phenyl](cyclopentyl)acetyl}amino)-2-methylphenyl]propanoic acid], the half-inhibitory concentration (IC50) was determined as 198 nM.
For the compound `Cc1c(CCC(=O)O)cccc1NC(=O)C(c1cc(F)c(-c2cncc(Cl)c2)cc1F)C1CCCC1` (racemic) [Example 178, (R/S) 3-[3-({[4-(5-chloropyridin-3-yl)-2,5-difluorophenyl](cyclopentyl)acetyl}amino)-2-methylphenyl]propanoic acid], the IC50 worked out at 269 nM.
In the case of `Cc1c(CCC(=O)O)cccc1NC(=O)C(c1cc(F)c(-c2cncc(C(F)(F)F)c2)cc1F)C1CCCC1` (racemic) [Example 179, (R/S) 3-{3-[(cyclopentyl{2,5-difluoro-4-[5-(trifluoromethyl)pyridin-3-yl]phenyl}acetyl)amino]-2-methylphenyl}propanoic acid], the IC50 was determined as 85.2 nM.
In the case of `Cc1ncc(-c2cc(F)c(C(C(=O)Nc3cccc(CCC(=O)O)c3C)C3CCCC3)cc2F)cc1Cl` (racemic) [Example 180, (R/S) 3-[3-({[4-(5-chloro-6-methylpyridin-3-yl)-2,5-difluorophenyl](cyclopentyl)acetyl}amino)-2-methylphenyl]propanoic acid], the IC50 stood at 66.4 nM.
For `Cc1cc(C(C(=O)Nc2cccc(CCC(=O)O)c2C)C2CCCC2)c(F)cc1-c1cncc(Cl)c1` (racemic) [Example 181, (R/S) 3-[3-({[4-(5-chloropyridin-3-yl)-2-fluoro-5-methylphenyl](cyclopentyl)acetyl}amino)-2-methylphenyl]propanoic acid], the IC50 was 2300 nM.
As for `Cc1cc(C(C(=O)Nc2cccc(CCC(=O)O)c2C)C2CCCC2)c(F)cc1-c1cnc(C)c(Cl)c1` (racemic) [Example 182, (R/S) 3-[3-({[4-(5-chloro-6-methylpyridin-3-yl)-2-fluoro-5-methylphenyl](cyclopentyl)acetyl}amino)-2-methylphenyl]propanoic acid], the concentration for half-maximal inhibition (IC50) amounted to 741 nM.
`Cc1cc(C(C(=O)Nc2cccc(CCC(=O)O)c2C)C2CCCC2)c(F)cc1-c1cncc(C(F)(F)F)c1` (racemic) [Example 183, (R/S) 3-{3-[(cyclopentyl{2-fluoro-5-methyl-4-[5-(trifluoromethyl)pyridin-3-yl]phenyl}acetyl)amino]-2-methylphenyl}propanoic acid]: the IC50 is 1000 nM.
In the case of `Cc1ncc(-c2ccc(C(C(=O)Nc3cccc(CCC(=O)O)c3C)C3CCCC3)cc2)cc1F` (racemic) [Example 211, (R/S) 3-[3-({cyclopentyl[4-(5-fluoro-6-methylpyridin-3-yl)phenyl]acetyl}amino)-2-methylphenyl]propanoic acid], the IC50 stood at 190 nM.
`CCC(CC(=O)O)c1cccc(NC(=O)C(c2ccc(-c3cncc(CC(C)C)c3)c(F)c2)C2CCCC2)c1C` (single isomer, unassigned) [Example 194, 3-[3-({cyclopentyl[3-fluoro-4-(5-isobutylpyridin-3-yl)phenyl]acetyl}amino)-2-methylphenyl]pentanoic acid, single enantiomer]: the IC50 came to 6.82 nM.
On to `CCc1cncc(-c2ccc(C(C(=O)Nc3cccc(C(CC)CC(=O)O)c3C)C3CCCC3)cc2F)c1` (single isomer, unassigned) [Example 195, 3-[3-({cyclopentyl[4-(5-ethylpyridin-3-yl)-3-fluorophenyl]acetyl}amino)-2-methylphenyl]pentanoic acid, Single Enantiomer], for which the half-inhibitory concentration (IC50) was determined as 10.5 nM.
In the case of `CCC(CC(=O)O)c1cccc(NC(=O)[C@@H](c2ccc(-c3cncc(CC(F)(F)F)c3)cc2)C2CCCC2)c1C` (single isomer, unassigned) [Example 200] it was 17.7 nM.
Turning to `CCC(CC(=O)O)c1cccc(NC(=O)C(c2ccc(-c3cnc(C)c(C(F)(F)F)c3)c(F)c2)C2CCCC2)c1C` (single isomer, unassigned) [Example 201], the IC50 stood at 6.57 nM.
As for `CCC(CC(=O)O)c1cccc(NC(=O)[C@@H](c2ccc(-c3cncc(OC(C)C)c3)cc2)C2CCCC2)c1C` (single isomer, unassigned) [Example 203], the IC50 worked out at 16.7 nM.
In the case of `Cc1c(CCC(=O)O)cccc1NC(=O)C(c1ccc(-c2cncc(CC(F)(F)F)c2)c(F)c1)C1CCC1` (single isomer, unassigned) [Example 205, 3-{3-[(cyclobutyl{3-fluoro-4-[5-(2,2,2-trifluoroethyl)pyridin-3-yl]phenyl}acetyl)amino]-2-methylphenyl}propanoic acid, Single Enantiomer], the IC50 came to 66.4 nM.
For the compound `Cc1c(CCC(=O)O)cccc1NC(=O)C(c1ccc(-c2cncc(CC(C)C)c2)c(F)c1)C1CCC1` (single isomer, unassigned) [Example 207, 3-[3-({cyclobutyl[3-fluoro-4-(5-isobutylpyridin-3-yl)phenyl]acetyl}amino)-2-methylphenyl]propanoic acid, Single Enantiomer], the IC50 was determined as 14.1 nM.
The value for `Cc1c(NC(=O)C(c2ccc(-c3cncc(C(F)(F)F)c3)cc2)C2CCCC2)cccc1OCC(=O)O` (single isomer, unassigned; (+)) [Example 35, (+) {3-[(Cyclopentyl{4-[5-(trifluoromethyl)pyridin-3-yl]phenyl}acetyl)amino]-2-methylphenoxy}acetic acid] was 3730 nM; that for `Cc1c(CCC(=O)O)cccc1NC(=O)C(c1ccc(-c2cncc(C(F)(F)F)c2)c(F)c1)C1CCCC1` (single isomer, unassigned; (+)) [Example 49, (+) 3-{3-[(Cyclopentyl{3-fluoro-4-[5-(trifluoromethyl)pyridin-3-yl]phenyl}acetyl)amino]-2-methylphenyl}propanoic acid] was 530 nM.
For `Cc1c(CCC(=O)O)cccc1NC(=O)C(c1ccc(-c2cncc(C(F)(F)F)c2)cc1)C1CCC1` (single isomer, unassigned; (+)) [Example 56, (+) 3-{3-[(Cyclobutyl{4-[5-(trifluoromethyl)pyridin-3-yl]phenyl}acetyl)amino]-2-methylphenyl}propanoic acid], the concentration for half-maximal inhibition (IC50) was 7520 nM.
Consider `Cc1c(CCC(=O)O)cccc1NC(=O)C(c1ccc(-c2ccc(C(F)(F)F)nc2)cc1)C1CCCC1` (single isomer, unassigned; (-)) [Example 5, (−) 3-{3-[(Cyclopentyl{4-[6-(trifluoromethyl)pyridin-3-yl]phenyl}acetyl)amino]-2-methylphenyl}propanoic acid], for which the half-inhibitory concentration (IC50) came out at 795 nM.
For `Cc1c(NC(=O)C(c2ccc(-c3cncc(C(F)(F)F)c3)cc2)C2CCCC2)cccc1OCC(=O)O` (single isomer, unassigned; (-)) [Example 34, (−) {3-[(Cyclopentyl{4-[5-(trifluoromethyl)pyridin-3-yl]phenyl}acetyl)amino]-2-methylphenoxy}acetic acid], the half-maximal inhibitory concentration (IC50) came to 9.85 nM.
With `Cc1c(NC(=O)C(c2ccc(-c3cncc(C(F)(F)F)c3)c(F)c2)C2CCCC2)cccc1N(C)CC(=O)O` (single isomer, unassigned; (-)) [Example 188, (−) N-{3-[(cyclopentyl{3-fluoro-4-[5-(trifluoromethyl)pyridin-3-yl]phenyl}acetyl)amino]-2-methylphenyl}-N-methylglycine, Single Enantiomer], the IC50 was 24.2 nM.
For `Cc1c(CCC(=O)O)cccc1NC(=O)C(c1ccc(-c2cncc(CC(F)(F)F)c2)c(F)c1)C1CCCC1` (single isomer, unassigned; (-)) [Example 196, (−) 3-{3-[(cyclopentyl{3-fluoro-4-[5-(2,2,2-trifluoroethyl)pyridin-3-yl]phenyl}acetyl)amino]-2-methylphenyl}propanoic acid, Single Enantiomer], the IC50 is 74.7 nM.
In the case of `Cc1c(CCC(=O)O)cccc1NC(=O)C(c1ccc(-c2cnc(F)c(C(F)(F)F)c2)c(F)c1)C1CCCC1` (single isomer, unassigned; (-)) [Example 197], the IC50 turned out to be 19.3 nM.
`Cc1ncc(-c2ccc(C(C(=O)Nc3cccc(CCC(=O)O)c3C)C3CCCC3)cc2F)cc1CC(C)C` (single isomer, unassigned; (-)) [Example 198, (−) 3-[3-({cyclopentyl[3-fluoro-4-(5-isobutyl-6-methylpyridin-3-yl)phenyl]acetyl}amino)-2-methylphenyl]propanoic acid, Single Enantiomer]: the half-maximal inhibitory concentration (IC50) was 20 nM.
Take `Cc1c(CCC(=O)O)cccc1NC(=O)C(c1ccc(-c2cncc(OC(C)C)c2)c(F)c1)C1CCCC1` (single isomer, unassigned; (-)) [Example 199, (−) 3-[3-({cyclopentyl[3-fluoro-4-(5-isopropoxypyridin-3-yl)phenyl]acetyl}amino)-2-methylphenyl]propanoic acid, Single Enantiomer]: the 50% inhibitory concentration (IC50) was determined as 30.2 nM.
With `Cc1ncc(-c2ccc(C(C(=O)Nc3cccc(CCC(=O)O)c3C)C3CCC3)cc2F)cc1C(F)(F)F` (single isomer, unassigned; (-)) [Example 206, (−) 3-{3-[(cyclobutyl{3-fluoro-4-[6-methyl-5-(trifluoromethyl)pyridin-3-yl]phenyl}acetyl)amino]-2-methylphenyl}propanoic acid, Single Enantiomer], the concentration for half-maximal inhibition (IC50) was found to be 10.1 nM.
For `Cc1c(CCC(=O)O)cccc1NC(=O)C(c1ccc(-c2cncc(C(F)(F)F)c2)c(F)c1)C1CCC1` (single isomer, unassigned; (-)) [Example 208, (−) 3-{3-[(cyclobutyl{3-fluoro-4-[5-(trifluoromethyl)pyridin-3-yl]phenyl}acetyl)amino]-2-methylphenyl}propanoic acid, Single Enantiomer], the IC50 was determined as 28.1 nM.

By IC50 is commonly meant the concentration that inhibits the measured activity by half.
